According to PubChem BioAssay (NCI):
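Cultured in 96-well plates, cells were exposed to test compound for 48 hours across five concentrations. GI50: concentration for 50% inhibition of growth. TGI is the concentration that stops growth completely.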

Assays:
Test in all cases: inhibition of tumour cell growth, NCI panel, 48 h
[1] = system: SK-MEL-2 melanoma
[2] = system: HT29 colon
[3] = system: SF-295 CNS
[4] = system: HS 578T breast
[5] = system: HCT-15 colon
[6] = system: HCC-2998 colon
[7] = system: NCI-H226 lung
[8] = system: NCI-H23 lung
[9] = system: MDA-MB-231 breast
[10] = system: SF-539 CNS
[11] = system: HOP-92 NSCLC
[12] = system: NCI-H460 lung
[13] = system: SK-MEL-5 melanoma
[14] = system: MOLT-4 leukemia
[15] = system: 786-0 renal
[16] = system: TK-10 renal
[17] = system: UO-31 renal
[18] = system: IGROV1 ovarian
[19] = system: M14 melanoma
[20] = system: SNB-19 CNS
[21] = system: T-47D breast
[22] = system: ACHN renal
[23] = system: A498 renal
[24] = system: OVCAR-5 ovarian
[25] = system: OVCAR-4 ovarian
[26] = system: COLO 205 colon
[27] = system: OVCAR-8 ovarian
[28] = system: SN12C renal
[29] = system: LOX IMVI melanoma
[30] = system: A549 NSCLC
[31] = system: MALME-3M melanoma
[32] = system: SW-620 colon
[33] = system: OVCAR-3 ovarian
[34] = system: U251 CNS
[35] = system: EKVX NSCLC
[36] = system: NCI/ADR-RES ovarian
[37] = system: SK-OV-3 ovarian
[38] = system: CAKI-1 renal
[39] = system: BT-549 breast
[40] = system: MDA-MB-435
[41] = system: HCT-116 colon
[42] = system: KM12 colon
[43] = system: RXF 393 renal
[44] = system: SK-MEL-28 melanoma
[45] = system: RPMI-8226 leukemia
[46] = system: DU-145 prostate
[47] = system: SR leukemia
[48] = system: MCF7 breast
[49] = system: PC-3 prostate
[50] = system: HL-60(TB) leukemia
[51] = system: UACC-62 melanoma
[52] = system: SF-268 CNS
[53] = system: SNB-75 CNS
[54] = system: NCI-H522 lung
[55] = system: HOP-62 NSCLC
[56] = system: UACC-257 melanoma
[57] = system: K-562 leukemia

Q: How did the GI50 [1] turn out when `CC(=O)Nc1ccc2c(c1)oc(=O)c1cc(NC(C)=O)ccc12` was run?
A: > 100 µM

Q: And the TGI [1]?
A: > 100 µM

Q: And the GI50 [2]?
A: 54 µM

Q: What about the TGI [2] of the same compound?
A: > 100 µM

Q: What about the GI50 [3] of the same compound?
A: > 100 µM

Q: What about the TGI [3] of the same compound?
A: > 100 µM

Q: What about the GI50 [4] of the same compound?
A: 63.4 µM

Q: What about the TGI [4] of the same compound?
A: > 100 µM

Q: What about the GI50 [5] of the same compound?
A: > 100 µM

Q: What about the TGI [5] of the same compound?
A: > 100 µM

Q: And the GI50 [6]?
A: 52.4 µM

Q: What about the TGI [6] of the same compound?
A: > 100 µM

Q: What about the GI50 [7] of the same compound?
A: > 100 µM

Q: And the TGI [7]?
A: > 100 µM

Q: What about the GI50 [8] of the same compound?
A: > 100 µM

Q: And the TGI [8]?
A: > 100 µM

Q: What about the GI50 [9] of the same compound?
A: 48.5 µM

Q: And the TGI [9]?
A: > 100 µM

Q: And the GI50 [10]?
A: > 100 µM

Q: What about the TGI [10] of the same compound?
A: > 100 µM

Q: What about the GI50 [11] of the same compound?
A: 29.6 µM

Q: What about the TGI [11] of the same compound?
A: > 100 µM

Q: And the GI50 [12]?
A: > 100 µM

Q: What about the TGI [12] of the same compound?
A: > 100 µM

Q: What about the GI50 [13] of the same compound?
A: 96.5 µM

Q: And the TGI [13]?
A: > 100 µM

Q: What about the GI50 [14] of the same compound?
A: 18.9 µM

Q: What about the TGI [14] of the same compound?
A: > 100 µM

Q: What about the GI50 [15] of the same compound?
A: > 100 µM

Q: What about the TGI [15] of the same compound?
A: > 100 µM

Q: And the GI50 [16]?
A: 98.7 µM

Q: What about the TGI [16] of the same compound?
A: > 100 µM

Q: And the GI50 [17]?
A: > 100 µM

Q: And the TGI [17]?
A: > 100 µM

Q: What about the GI50 [18] of the same compound?
A: 83.4 µM

Q: And the TGI [18]?
A: > 100 µM

Q: And the GI50 [19]?
A: 91.6 µM

Q: And the TGI [19]?
A: > 100 µM

Q: What about the GI50 [20] of the same compound?
A: > 100 µM

Q: What about the TGI [20] of the same compound?
A: > 100 µM

Q: And the GI50 [21]?
A: 59.6 µM

Q: What about the TGI [21] of the same compound?
A: > 100 µM

Q: What about the GI50 [22] of the same compound?
A: > 100 µM

Q: What about the TGI [22] of the same compound?
A: > 100 µM

Q: And the GI50 [23]?
A: > 100 µM

Q: What about the TGI [23] of the same compound?
A: > 100 µM

Q: What about the GI50 [24] of the same compound?
A: > 100 µM

Q: And the TGI [24]?
A: > 100 µM

Q: And the GI50 [25]?
A: > 100 µM

Q: What about the TGI [25] of the same compound?
A: > 100 µM

Q: And the GI50 [26]?
A: 41.7 µM

Q: And the TGI [26]?
A: > 100 µM

Q: What about the GI50 [27] of the same compound?
A: > 100 µM

Q: And the TGI [27]?
A: > 100 µM

Q: What about the GI50 [28] of the same compound?
A: 29.6 µM

Q: What about the TGI [28] of the same compound?
A: > 100 µM

Q: And the GI50 [29]?
A: 75.6 µM

Q: What about the TGI [29] of the same compound?
A: > 100 µM

Q: And the GI50 [30]?
A: > 100 µM

Q: What about the TGI [30] of the same compound?
A: > 100 µM

Q: And the GI50 [31]?
A: 35.6 µM

Q: And the TGI [31]?
A: > 100 µM

Q: What about the GI50 [32] of the same compound?
A: > 100 µM

Q: And the TGI [32]?
A: > 100 µM

Q: What about the GI50 [33] of the same compound?
A: > 100 µM

Q: What about the TGI [33] of the same compound?
A: > 100 µM

Q: And the GI50 [34]?
A: > 100 µM

Q: What about the TGI [34] of the same compound?
A: > 100 µM

Q: What about the GI50 [35] of the same compound?
A: > 100 µM

Q: What about the TGI [35] of the same compound?
A: > 100 µM

Q: What about the GI50 [36] of the same compound?
A: > 100 µM

Q: And the TGI [36]?
A: > 100 µM

Q: And the GI50 [37]?
A: > 100 µM

Q: What about the TGI [37] of the same compound?
A: > 100 µM

Q: And the GI50 [38]?
A: > 100 µM

Q: What about the TGI [38] of the same compound?
A: > 100 µM

Q: What about the GI50 [39] of the same compound?
A: > 100 µM

Q: What about the TGI [39] of the same compound?
A: > 100 µM

Q: What about the GI50 [40] of the same compound?
A: > 100 µM

Q: And the TGI [40]?
A: > 100 µM

Q: What about the GI50 [41] of the same compound?
A: 80.8 µM

Q: And the TGI [41]?
A: > 100 µM

Q: What about the GI50 [42] of the same compound?
A: 21.7 µM

Q: What about the TGI [42] of the same compound?
A: 52.5 µM

Q: What about the GI50 [43] of the same compound?
A: > 100 µM

Q: And the TGI [43]?
A: > 100 µM

Q: And the GI50 [44]?
A: > 100 µM

Q: What about the TGI [44] of the same compound?
A: > 100 µM

Q: And the GI50 [45]?
A: 52.8 µM

Q: What about the TGI [45] of the same compound?
A: > 100 µM

Q: What about the GI50 [46] of the same compound?
A: > 100 µM

Q: And the TGI [46]?
A: > 100 µM

Q: And the GI50 [47]?
A: 8.52 µM

Q: What about the TGI [47] of the same compound?
A: 77.4 µM

Q: What about the GI50 [48] of the same compound?
A: 59.8 µM

Q: And the TGI [48]?
A: > 100 µM

Q: What about the GI50 [49] of the same compound?
A: 92.4 µM

Q: What about the TGI [49] of the same compound?
A: > 100 µM

Q: And the GI50 [50]?
A: 41.3 µM

Q: And the TGI [50]?
A: > 100 µM

Q: And the GI50 [51]?
A: 63.4 µM

Q: What about the TGI [51] of the same compound?
A: > 100 µM

Q: And the GI50 [52]?
A: 50.5 µM

Q: And the TGI [52]?
A: > 100 µM

Q: What about the GI50 [53] of the same compound?
A: > 100 µM

Q: And the TGI [53]?
A: > 100 µM

Q: And the GI50 [54]?
A: 55.7 µM

Q: What about the TGI [54] of the same compound?
A: > 100 µM

Q: And the GI50 [55]?
A: > 100 µM

Q: What about the TGI [55] of the same compound?
A: > 100 µM

Q: What about the GI50 [56] of the same compound?
A: > 100 µM

Q: What about the TGI [56] of the same compound?
A: > 100 µM

Q: And the GI50 [57]?
A: > 100 µM

Q: And the TGI [57]?
A: > 100 µM
